In one test the target is T1, DPP-IV (Homo sapiens, UniProt P27487).
T1 construct: purchased Abnova Co. Ltd. (Taipei, Taiwan) KA1311
Briefly: In vitro DPP-IV inhibition assay (fluorescence, Abnova kit KA1311). The test is classed as biochemical. The following applies: for inhibition at 100 µM: compound concentration 100 μM, read-out: inhibition rate; for pIC50: fluorescence detection, 37 °C, 30 min. Here is the method: A DPP-IV Inhibitor Screening Assay Kit (KA1311) was purchased from Abnova Co. Ltd. (Taipei, Taiwan). […] The in vitro inhibitory activity of each compound against DPP-IV was determined based on a fluorescence detection method. […] Additionally, a “100% initial activity well” (10 μL dimethyl sulfoxide [DMSO], 30 μL DPP assay buffer, and 10 μL DPP-IV) and a “background well” (10 μL DMSO and 40 μL DPP assay buffer) were prepared. Next, 50 μL of DPP was added to each well and incubated at 37 °C for 30 min. A FlexStation 3 multifunctional microplate reader (Molecular Devices, Sunnyvale, CA, USA) was used to detect the fluorescence value (excitation wavelength: 350–360 nm; emission wavelength: 450–465 nm). […] IC50 values were then calculated using GraphPad Prism 5 (GraphPad Software, La Jolla, CA, USA).

On the set-up of test [1]: method as in doi:10.1002/ptr.2650080207. The conditions noted are these: cited from earlier work.
The test system of test [2] is c-Jun N-terminal kinase (JNK) and p38 pathways. Further details: method as in PMID 25448500. The conditions noted are these: induced by LPS stimulation; cited from earlier work.
The subject of another test is arthritis in rats. Further details: method as in PMID 11440138. The following applies: cited from earlier work.
For another test, the system named is Cathepsin L. Further details: method as in PMID 11440138. The following applies: cited from earlier work.
A further test deals with Cathepsin B. Further details: method as in PMID 11440138. The following applies: cited from earlier work.

Each structure is given as a SMILES string. pIC50: −log10 of the molar value.

T1 sequence (P27487 whole entry): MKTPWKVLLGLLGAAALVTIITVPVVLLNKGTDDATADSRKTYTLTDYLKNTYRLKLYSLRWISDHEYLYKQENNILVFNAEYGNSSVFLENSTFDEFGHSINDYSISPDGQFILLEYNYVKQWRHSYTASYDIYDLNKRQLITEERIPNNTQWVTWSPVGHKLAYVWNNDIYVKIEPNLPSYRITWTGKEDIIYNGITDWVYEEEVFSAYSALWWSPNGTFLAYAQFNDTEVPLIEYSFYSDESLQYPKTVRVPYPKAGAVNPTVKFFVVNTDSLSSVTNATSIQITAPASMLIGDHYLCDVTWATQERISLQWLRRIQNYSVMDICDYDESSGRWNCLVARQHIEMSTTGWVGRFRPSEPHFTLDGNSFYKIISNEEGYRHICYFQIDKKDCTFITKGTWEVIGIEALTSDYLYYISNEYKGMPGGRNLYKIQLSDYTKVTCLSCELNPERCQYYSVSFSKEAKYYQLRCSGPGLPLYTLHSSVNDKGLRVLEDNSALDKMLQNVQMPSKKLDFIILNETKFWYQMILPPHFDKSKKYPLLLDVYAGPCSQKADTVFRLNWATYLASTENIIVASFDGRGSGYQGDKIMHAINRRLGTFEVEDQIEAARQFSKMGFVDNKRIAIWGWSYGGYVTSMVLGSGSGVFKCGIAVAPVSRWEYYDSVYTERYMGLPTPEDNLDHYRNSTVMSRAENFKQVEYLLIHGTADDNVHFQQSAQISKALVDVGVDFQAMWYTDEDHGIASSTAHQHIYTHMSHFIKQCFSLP

With `C[C@@H]1O[C@@H](Oc2ccc(CN=C=S)cc2)[C@H](O)[C@H](O)[C@H]1O` [Compound 2, 4-[(α-L-rhamnosyloxy)benzyl] Isothiocyanate], on DPP-IV, the inhibition (as a rule, the change of the read-out against control, counted positive when it falls) at 100 µM amounted to 30.9% and the pIC50 (usually the negative decadic logarithm of the IC50, by convention in mol/L) is 3.80.
Take `CCOC(=O)NCc1ccc(O[C@@H]2O[C@@H](C)[C@H](O)[C@@H](O)[C@H]2O)cc1` [Compound 1, O-Ethyl-4-[(α-L-rhamnosyloxy)benzyl] carbamate]: the hypotensive effect entry in test [1] is “a certain hypotensive effect”. At DPP-IV, the inhibition at 100 µM was determined as 71.2% and the pIC50 is 6.10.
For `CC(=O)OC[C@H](Cc1ccccc1)NC(=O)[C@H](Cc1ccccc1)NC(=O)c1ccccc1` [Compound 3, Aurantiamide acetate], the “inhibition of JNK and p38 pathways” value in test [2] is given as “inhibit”. In addition, on DPP-IV, the inhibition at 100 µM came to 23.5% and the pIC50 was 3.72. For the same compound, the effect on arthritis entry with arthritis in rats is “relieves arthritis”. In addition, the “Cathepsin L inhibition” value in the test on Cathepsin L was “inhibiting”. Besides, the “Cathepsin B inhibition” value with Cathepsin B is recorded as “inhibiting”.

(Values after publication PMC6983023, “Identification of Potential Dipeptidyl Peptidase (DPP)-IV Inhibitors among Moringa oleifera Phytochemicals by Virtual Screening, Molecular Docking Analysis, ADME/T-Based Prediction, and In Vitro Analyses” (Molecules, 2020).)
